Source: US20050096323A1, “Diketopiperazine derivatives to inhibit thrombin” (NovoScience Pharma Inc., priority 1999, published 2005)
Where a name gives a salt, the structure may show the parent alone.

Tests used:
thrombin = target: T1, thrombin (Homo sapiens, UniProt P00734); experiment: Thrombin inhibition constant (Ki), fluorogenic substrate assay; format: biochemical; conditions: for Cycloargatroban vs. Argatroban, Ki(Thrombin): thrombin inhibition activity relative to argatroban
T1 construct: purchased Sigma

trypsin = target: T2, trypsin (Bos taurus, UniProt P00760); experiment: Trypsin inhibition constant (Ki), fluorogenic substrate assay; format: biochemical
T2 sequence (P00760 24-246): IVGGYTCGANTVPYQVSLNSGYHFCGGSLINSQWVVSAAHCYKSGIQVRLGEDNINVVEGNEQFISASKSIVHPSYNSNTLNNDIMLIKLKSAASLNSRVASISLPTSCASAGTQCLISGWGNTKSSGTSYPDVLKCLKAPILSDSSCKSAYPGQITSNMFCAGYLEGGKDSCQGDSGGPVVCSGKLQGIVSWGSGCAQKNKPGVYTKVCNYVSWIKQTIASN
Protocol: (§1) The activity and selectivity of the present invention can be identified by determination of the inhibition constant (Ki) for serine proteases such thrombin and trypsin and fibrinolytic enzymes such as urokinase, plasmin and tissue plasminogen activator (tPA). All of enzymes are purchased from Sigma. The general assay conditions are as follows. The fluorogenic substrates are dissolved in DMSO and diluted using assay buffer containing 50 mM Tris.HCl (pH 7.8 at 25° C.), 0.1 M NaCl and 0.1% polyethylene glycol 8000 (PEG 8000). […] The assays were conducted using Hitachi F2500 spectrophotometer under ambient temperature and at the excitation and emission wavelengths of 383 nm and 455 nm, respectively. The typical progressive data of the enzymatic assays are shown in FIGS. 1-3, and the determination of inhibition constant (Ki) is shown in FIG. 4.

urokinase = target: T3, urokinase (Homo sapiens, UniProt P00749); experiment: Urokinase inhibition constant (Ki), fluorogenic substrate assay; format: biochemical
T3 construct: purchased Sigma
Protocol: as §1

plasmin = target: T4, plasmin (Homo sapiens, UniProt P00747); experiment: Plasmin inhibition constant (Ki), fluorogenic substrate assay; format: biochemical
T4 construct: purchased Sigma
Protocol: as §1

[1] = target: T5, tissue plasminogen activator (tPA) (Homo sapiens, UniProt P00750); experiment: tPA inhibition constant (Ki), fluorogenic substrate assay; format: biochemical
T5 construct: purchased Sigma
Protocol: as §1

[2] = tested on: pooled normal human plasma; experiment: Ex vivo coagulation assay (APTT prolongation); format: biochemical; conditions: normal citrated human plasma
Protocol: Frozen-pooled human plasma was obtained from Sigma. Measurement of APTT was made using the ELECTRA™ 800 automated coagulometer (Medical Laboratory Automation Inc.) using the automated APTT reagent (SIGMA) as the initiator of clotting according to the manufacture's instructions. The assay was conducted by making a series of dilution of the reference and test compounds in rapidly thawed plasma (compound: plasma=0.1 ml:0.9 ml) followed by adding the mixed solution to the wells of the assay carousel. Tris buffers (pH 7.8 at 25° C.) were used through the entire assay.

[3] = Acute toxicity, intravenous injection, determination of LD50; format: in vivo, mice; conditions: both sexes, ICR, mouse, in vivo, iv, ICR mice, single i.v., Bliss method
Text: (§2) 1) Determination of LD50 (Tables III and IV): ICR mice, 18 ˜20 g, were divided into five groups, with 10 animals in each group (half male and half female). The ratio of doses between groups was 1:0.85.

ICR mice [4] = experiment: as above; format: in vivo; conditions: for Number of deaths: 10 mice
Text: as §2

ICR mice [5] = experiment: Clotting time (CT) of mice whole blood after administration; format: in vivo
Protocol: Blood samples were collected using the capillary method 0.5 h and 1.5 h after i.v. injections and 1 h and 3 h after i.g. and clotting time of whole blood was measured.

SD rats = experiment: Weight of deep vein thrombosis (inferior vena cava thrombi) in rats; format: in vivo, rat; conditions: for Thrombi (mg) Dry weight / Thrombi (mg) Wet weight: 4 hours
Protocol: The drug was administered immediately after operation and, 4 hours later, the thrombi were collected and weighted.

T5 sequence (P00750 36-562, species assumed): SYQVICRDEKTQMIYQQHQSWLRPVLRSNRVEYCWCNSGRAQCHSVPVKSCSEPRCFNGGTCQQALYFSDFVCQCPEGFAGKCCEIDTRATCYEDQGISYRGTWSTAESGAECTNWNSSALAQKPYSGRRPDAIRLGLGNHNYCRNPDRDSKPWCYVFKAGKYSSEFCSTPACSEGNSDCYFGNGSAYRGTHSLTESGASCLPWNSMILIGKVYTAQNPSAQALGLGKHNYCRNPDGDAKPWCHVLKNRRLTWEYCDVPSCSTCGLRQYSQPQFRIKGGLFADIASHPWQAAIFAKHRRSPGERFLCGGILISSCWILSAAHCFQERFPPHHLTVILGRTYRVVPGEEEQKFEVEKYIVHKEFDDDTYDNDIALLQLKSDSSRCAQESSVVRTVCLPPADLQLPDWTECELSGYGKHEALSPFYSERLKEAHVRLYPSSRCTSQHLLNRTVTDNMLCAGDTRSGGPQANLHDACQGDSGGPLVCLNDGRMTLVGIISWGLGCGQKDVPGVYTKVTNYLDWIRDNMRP
T4 sequence (P00747 581-810 limits assumed, species assumed): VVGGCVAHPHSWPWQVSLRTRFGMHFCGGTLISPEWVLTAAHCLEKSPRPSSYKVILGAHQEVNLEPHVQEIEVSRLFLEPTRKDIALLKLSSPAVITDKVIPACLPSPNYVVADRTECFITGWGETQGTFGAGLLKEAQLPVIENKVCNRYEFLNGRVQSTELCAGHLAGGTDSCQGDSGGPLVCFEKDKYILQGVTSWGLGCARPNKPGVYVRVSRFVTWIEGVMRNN
T4 sequence (P00747 97-580 partner limits assumed, species assumed): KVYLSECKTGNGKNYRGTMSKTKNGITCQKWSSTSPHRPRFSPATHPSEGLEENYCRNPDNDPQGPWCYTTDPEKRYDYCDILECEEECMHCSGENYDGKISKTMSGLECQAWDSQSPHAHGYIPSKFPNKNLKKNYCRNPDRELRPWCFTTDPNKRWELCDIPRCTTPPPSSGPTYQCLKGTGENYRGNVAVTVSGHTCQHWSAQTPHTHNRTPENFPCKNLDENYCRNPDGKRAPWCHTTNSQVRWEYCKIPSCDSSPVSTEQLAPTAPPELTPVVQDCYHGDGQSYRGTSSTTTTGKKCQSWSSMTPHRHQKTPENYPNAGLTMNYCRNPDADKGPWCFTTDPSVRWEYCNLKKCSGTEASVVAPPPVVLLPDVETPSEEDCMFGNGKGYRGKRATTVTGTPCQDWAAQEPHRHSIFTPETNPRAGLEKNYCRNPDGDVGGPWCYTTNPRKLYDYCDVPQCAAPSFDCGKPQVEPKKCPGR

## CC1CNc2c(cccc2S(=O)(=O)N2C(=O)C3CC(C)CCN3C(=O)C2CCCNC(=N)N)C1 [NPI1999, (3S,6R,8R)-Bicyclo[4.4.0]-1,4-diaza-3-(3-guanidinopropyl)-4-N-(1,2,3,4-tetrahydro-3-methyl-8-quinolinesulfonyl)-8-methyl-2,5-decanedione, hydrochoride salt]
thrombin; Table II, method of example 9
  Ki: 0.02 to 0.04 µM
thrombin; substrate Tos-Gly-Pro-Arg-AMC, pH 7.8
  Ki: 0.04 µM
thrombin; listed as Cycloargatroban
  Cycloargatroban vs. Argatroban, Ki(Thrombin): −2.1 fold
thrombin; listed as cycloargatroban
  Cycloargatroban vs. Argatroban, Ki(Thrombin): 2.1 fold
trypsin; listed as Cycloargatroban
  Cycloargatroban [Ki (Enzyme)/Ki (Thrombin)] vs. Argatroban [Ki (Enzyme)/Ki (Thrombin)]: +12 fold
trypsin; listed as cycloargatroban
  Cycloargatroban [Ki (Enzyme)/Ki (Thrombin)] vs. Argatroban [Ki (Enzyme)/Ki (Thrombin)]: 12 fold
urokinase; enzyme = urokinase
  Cycloargatroban [Ki (Enzyme)/Ki (Thrombin)] vs. Argatroban [Ki (Enzyme)/Ki (Thrombin)]: −0.14 fold
urokinase; substrate N-Cbz-Gly-Gly-Arg-AMC
  Ki: 295 µM
plasmin; enzyme = plasmin
  Cycloargatroban [Ki (Enzyme)/Ki (Thrombin)] vs. Argatroban [Ki (Enzyme)/Ki (Thrombin)]: −0.67 fold
plasmin; substrate D-Ala-Leu-Lys-AMC
  Ki: 528 µM
[1]; enzyme = tPA
  Cycloargatroban [Ki (Enzyme)/Ki (Thrombin)] vs. Argatroban [Ki (Enzyme)/Ki (Thrombin)]: +1.2 fold
[1]; substrate Boc-L-(p-F) FPR-ANSNH-C2H5
  Ki: 2020 µM
[2]
  effect on APTT compared with argatroban: less strong effect
[2]; FIG. 5
  effect on activated partial thromboplastin time (APTT): prolonged the APTT in a dose dependent manner
[3]
  95% confidence interval of LD50 at 2 weeks: 10 to 11.9 mg/kg
[3]; observed 2 weeks
  LD50 at 2 weeks: 10.9 mg/kg
ICR mice [4]; i.v. 7.83 mg/kg
  Death rate (%): 0%
  Number of deaths: 0
ICR mice [4]; i.v. 7.83 mg/kg, ♀, 4-13 days after administration
  Number of death: 0
ICR mice [4]; i.v. 7.83 mg/kg, ♀, 1 day after administration
  Number of death: 0
ICR mice [4]; i.v. 7.83 mg/kg, ♀, 2 days after administration
  Number of death: 0
ICR mice [4]; i.v. 7.83 mg/kg, ♀, 3 days after administration
  Number of death: 0
ICR mice [4]; i.v. 7.83 mg/kg, ♀, day of administration
  Number of death: 0
ICR mice [4]; i.v. 7.83 mg/kg, ♂, 4-13 days after administration
  Number of death: 0
ICR mice [4]; i.v. 7.83 mg/kg, ♂, 1 day after administration
  Number of death: 0
ICR mice [4]; i.v. 7.83 mg/kg, ♂, 2 days after administration
  Number of death: 0
ICR mice [4]; i.v. 7.83 mg/kg, ♂, 3 days after administration
  Number of death: 0
ICR mice [4]; i.v. 7.83 mg/kg, ♂, day of administration
  Number of death: 0
ICR mice [4]; i.v. 9.21 mg/kg
  Death rate (%): 30%
  Number of deaths: 3
ICR mice [4]; i.v. 9.21 mg/kg, ♀, 4-13 days after administration
  Number of death: 0
ICR mice [4]; i.v. 9.21 mg/kg, ♀, 1 day after administration
  Number of death: 0
ICR mice [4]; i.v. 9.21 mg/kg, ♀, 2 days after administration
  Number of death: 0
ICR mice [4]; i.v. 9.21 mg/kg, ♀, 3 days after administration
  Number of death: 0
ICR mice [4]; i.v. 9.21 mg/kg, ♀, day of administration
  Number of death: 2
ICR mice [4]; i.v. 9.21 mg/kg, ♂, 4-13 days after administration
  Number of death: 0
ICR mice [4]; i.v. 9.21 mg/kg, ♂, 1 day after administration
  Number of death: 0
ICR mice [4]; i.v. 9.21 mg/kg, ♂, 2 days after administration
  Number of death: 0
ICR mice [4]; i.v. 9.21 mg/kg, ♂, 3 days after administration
  Number of death: 0
ICR mice [4]; i.v. 9.21 mg/kg, ♂, day of administration
  Number of death: 1
ICR mice [4]; i.v. 10.84 mg/kg
  Death rate (%): 50%
  Number of deaths: 5
ICR mice [4]; i.v. 10.84 mg/kg, ♀, 4-13 days after administration
  Number of death: 0
ICR mice [4]; i.v. 10.84 mg/kg, ♀, 1 day after administration
  Number of death: 0
ICR mice [4]; i.v. 10.84 mg/kg, ♀, 2 days after administration
  Number of death: 0
ICR mice [4]; i.v. 10.84 mg/kg, ♀, 3 days after administration
  Number of death: 0
ICR mice [4]; i.v. 10.84 mg/kg, ♀, day of administration
  Number of death: 3
ICR mice [4]; i.v. 10.84 mg/kg, ♂, 4-13 days after administration
  Number of death: 0
ICR mice [4]; i.v. 10.84 mg/kg, ♂, 1 day after administration
  Number of death: 0
ICR mice [4]; i.v. 10.84 mg/kg, ♂, 2 days after administration
  Number of death: 0
ICR mice [4]; i.v. 10.84 mg/kg, ♂, 3 days after administration
  Number of death: 0
ICR mice [4]; i.v. 10.84 mg/kg, ♂, day of administration
  Number of death: 2
ICR mice [4]; i.v. 12.75 mg/kg
  Death rate (%): 80%
  Number of deaths: 8
ICR mice [4]; i.v. 12.75 mg/kg, ♀, 4-13 days after administration
  Number of death: 0
ICR mice [4]; i.v. 12.75 mg/kg, ♀, 1 day after administration
  Number of death: 0
ICR mice [4]; i.v. 12.75 mg/kg, ♀, 2 days after administration
  Number of death: 0
ICR mice [4]; i.v. 12.75 mg/kg, ♀, 3 days after administration
  Number of death: 0
ICR mice [4]; i.v. 12.75 mg/kg, ♀, day of administration
  Number of death: 4
ICR mice [4]; i.v. 12.75 mg/kg, ♂, 4-13 days after administration
  Number of death: 0
ICR mice [4]; i.v. 12.75 mg/kg, ♂, 1 day after administration
  Number of death: 0
ICR mice [4]; i.v. 12.75 mg/kg, ♂, 2 days after administration
  Number of death: 0
ICR mice [4]; i.v. 12.75 mg/kg, ♂, 3 days after administration
  Number of death: 0
ICR mice [4]; i.v. 12.75 mg/kg, ♂, day of administration
  Number of death: 4
ICR mice [4]; i.v. 15.00 mg/kg
  Death rate (%): 90%
  Number of deaths: 9
ICR mice [4]; i.v. 15.00 mg/kg, ♀, 4-13 days after administration
  Number of death: 0
ICR mice [4]; i.v. 15.00 mg/kg, ♀, 1 day after administration
  Number of death: 0
ICR mice [4]; i.v. 15.00 mg/kg, ♀, 2 days after administration
  Number of death: 0
ICR mice [4]; i.v. 15.00 mg/kg, ♀, 3 days after administration
  Number of death: 0
ICR mice [4]; i.v. 15.00 mg/kg, ♀, day of administration
  Number of death: 4
ICR mice [4]; i.v. 15.00 mg/kg, ♂, 4-13 days after administration
  Number of death: 0
ICR mice [4]; i.v. 15.00 mg/kg, ♂, 1 day after administration
  Number of death: 0
ICR mice [4]; i.v. 15.00 mg/kg, ♂, 2 days after administration
  Number of death: 0
ICR mice [4]; i.v. 15.00 mg/kg, ♂, 3 days after administration
  Number of death: 0
ICR mice [4]; i.v. 15.00 mg/kg, ♂, day of administration
  Number of death: 5
ICR mice [5]; 0.25 mg/kg i.v. group, before administration
  CT (clotting time of whole blood): 128.53 ± 27.14
ICR mice [5]; 0.25 mg/kg i.v., 0.5 h
  CT (clotting time of whole blood): 140.02 ± 26.40
ICR mice [5]; 0.25 mg/kg i.v., 1.5 h
  CT (clotting time of whole blood): 139.88 ± 30.40
ICR mice [5]; 0.5 mg/kg i.v. group, before administration
  CT (clotting time of whole blood): 125.53 ± 25.03
ICR mice [5]; 0.5 mg/kg i.v., 0.5 h
  CT (clotting time of whole blood): 172.88 ± 34.26
ICR mice [5]; 0.5 mg/kg i.v., 1.5 h
  CT (clotting time of whole blood): 161.76 ± 40.10
ICR mice [5]; 1 mg/kg i.v. group, before administration
  CT (clotting time of whole blood): 124.06 ± 28.96
ICR mice [5]; 1 mg/kg i.v., 0.5 h
  CT (clotting time of whole blood): 165.12 ± 30.57
ICR mice [5]; 1 mg/kg i.v., 1.5 h
  CT (clotting time of whole blood): 163.62 ± 44.26
ICR mice [5]; 75 mg/kg i.g. group, before administration
  CT (clotting time of whole blood): 126.11 ± 22.83
ICR mice [5]; 75 mg/kg i.g., 1 h
  CT (clotting time of whole blood): 133.11 ± 29.00
ICR mice [5]; 75 mg/kg i.g., 3.0 h
  CT (clotting time of whole blood): 119.39 ± 25.88
ICR mice [5]; 150 mg/kg i.g. group, before administration
  CT (clotting time of whole blood): 125.50 ± 23.67
ICR mice [5]; 150 mg/kg i.g., 1 h
  CT (clotting time of whole blood): 128.06 ± 30.03
ICR mice [5]; 150 mg/kg i.g., 3.0 h
  CT (clotting time of whole blood): 119.44 ± 26.01
ICR mice [5]; i.g. 75 mg/kg and 150 mg/kg, 1 h and 3 h
  clotting time compared to controls: No significant difference
ICR mice [5]; i.v. 0.5 mg/kg and 1 mg/kg, 0.5 h and 1.5 h
  clotting time compared to controls: significantly prolonged
SD rats; 0.125 mg/kg i.v.
  Thrombi (mg) Dry weight: 7.62 ± 6.18 mg
  Thrombi (mg) Wet weight: 19.84 ± 12.17 mg
SD rats; 0.25 mg/kg i.v.
  Thrombi (mg) Dry weight: 6.70 ± 4.34 mg
  Thrombi (mg) Wet weight: 19.63 ± 12.02 mg
SD rats; 0.50 mg/kg i.v.
  Thrombi (mg) Dry weight: 5.81 ± 3.25 mg
  Thrombi (mg) Wet weight: 18.85 ± 8.61 mg
SD rats; 75 mg/kg intraduodenum
  Thrombi (mg) Dry weight: 11.66 ± 4.23 mg
  Thrombi (mg) Wet weight: 32.02 ± 19.34 mg
SD rats; i.v. groups (0.125, 0.25, 0.5 mg/kg)
  thrombi weights: thrombi weights were decreased
SD rats; intra-duodenum 75 mg/kg
  thrombi weights: no obvious effect
